What was measured:
[1] = DPPH test for the removal of free radicals (activity as free-radical scavengers); settings: for EC50 (effective relative concentration, c(test compound)/c(DPPH), at which 50% of the free radical DPPH had been removed): DPPH 100 μmol/l in methanol, absorption at 515 nm read until the decrease was less than 2% per hour
Protocol: The activity of example compounds 1 to 16 as free-radical scavengers was compared with that of a traditional free-radical scavenger. The DPPH (1,1-diphenyl-2-picrylhydrazyl) test for the removal of free radicals was used.
DPPH was dissolved in methanol to a concentration of 100 μmol/l. A series of dilutions of the example compounds, vitamin C, α-tocopherol, BHT, ferulic acid and of the naturally occurring N-(2-[4-hydroxyphenyl]ethyl)-4-hydroxy-3-methoxy-E-cinnamamide were prepared in methanol. Methanol was used as the control. 2500 μl of the DPPH solution were mixed with 500 μl of each test solution and the decrease in absorption at 515 nm was read until the decrease was less than 2% per hour. The activity of the test substances as free-radical scavengers was calculated using the following equation:
Activity as free-radical scavenger (%)=100-(absorption of the test
compounds)/(absorption of the control)×100.
The activity as free-radical scavengers (%) in a series of dilutions of test compounds was used to calculate, for each test compound, the effective relative concentration EC50 (based on the starting concentration of DPPH, EC=c (test compound)/c(DPPH)) of a test compound, at which 50% of the free radical DPPH had been removed.

[2] = accelerated autoxidation of lipids by air using a RANCIMAT apparatus (activity as antioxidants); settings: for AOI (antioxidative index) = IP(with test solution)/IP(control sample): 0.05% of test substance, soy bean oil, 100° C., dry air stream 20 l/h
Protocol: The activity of example compounds 1 to 16 as antioxidants was compared with that of traditional antioxidants. The test system used was the accelerated autoxidation of lipids by air with or without antioxidant using a RANCIMAT apparatus (RANCIMAT is a registered trade mark of Metrohm AG, Herisau, Switzerland).
The example compounds, vitamin C, α-tocopherol, BHT, ferulic acid and the naturally occurring N-(2-[4-hydroxyphenyl]-ethyl)-4-hydroxy-3-methoxy-E-cinnamamide were dissolved in methanol or acetone, and 100 μl of each test solution were added to a 3 g pre-prepared oil sample (soy bean oil, purified over alumina type N). In a control sample, only solvent was added. A constant, dry air stream (20 l/h) was blown through the oil sample, which contained the test solution and was heated to 100° C., and the volatile oxidation products (predominantly short-chain fatty acids such as formic or acetic acid) were collected in a receiver containing water. The conductivity of this aqueous solution was continuously measured and recorded. The oxidation of (unsaturated) fats proceeds only very slowly for some time and then suddenly increases. The time to the increase is referred to as the induction period (IP).
The following equation was used to calculate the antioxidative index (AOI):
AOI=IP(with test solution) /IP(control sample)

[3] = comparison in words with reference substances

Structure (SMILES)	EC50 (effective relative concentration, c(test compound)/c(DPPH), at which 50% of the free radical DPPH had been removed) [1] [mol/mol]	AOI (antioxidative index) = IP(with test solution)/IP(control sample) [2]	action as free-radical scavenger, in words [1, 3]	action as antioxidant, in words [2, 3]
Cc1cc(C(C)(C)C)c(O)c(C(C)(C)C)c1 [BHT, 2,6-di-tert-butyl-4-methylphenol, reference compound]	0.240	4.77	–	–
COc1cc(/C=C/C(=O)NCc2ccc(O)c(O)c2)ccc1O [Example 1, N-(3,4-Dihydroxybenzyl)-4-hydroxy-3-methoxy-E-cinnamamide]	0.1	11.41	–	–
COc1cc(/C=C/C(=O)NCc2ccc(O)c(O)c2)cc(OC)c1O [Example 2, N-(3,4-Dihydroxybenzyl)-3,5-dimethoxy-4-hydroxy-E-cinnamamide]	0.097	7.58	–	–
COc1cc(/C=C/C(=O)NCc2ccc(O)c(O)c2O)ccc1O [Example 3, N-(2,3,4-Trihydroxybenzyl)-4-hydroxy-3-methoxy-E-cinnamamide]	0.097	11.7	–	–
COc1cc(/C=C/C(=O)NCc2ccc(O)c(O)c2O)cc(OC)c1O [Example 4, N-(2,3,4-Trihydroxybenzyl)-3,5-dimethoxy-4-hydroxy-E-cinnamamide]	0.1	17.3	–	–
COc1cc(/C=C/C(=O)NCc2cc(O)c(O)c(O)c2)ccc1O [Example 5, N-(3,4,5-Trihydroxybenzyl)-4-hydroxy-3-methoxy-E-cinnamamide]	0.0097	21.4	–	–
COc1cc(CC(=O)NCc2ccc(O)c(O)c2)ccc1O [Example 6, N-(3,4-Dihydroxybenzyl)-4-hydroxy-3-methoxyphenylacetamide]	0.103	13.9	–	–
COc1cc(CCC(=O)NCc2ccc(O)c(O)c2)ccc1O [Example 7, N-(3,4-Dihydroxybenzyl)-3-(4-hydroxy-3-methoxyphenyl)-propanamide]	0.094	7.7	–	–
COc1cc(CNC(=O)CCc2ccc(O)c(O)c2)ccc1O [Example 8, N-(4-Hydroxy-3-methoxybenzyl)-3-(3,4-dihydroxyphenyl)-proyanamide]	0.119	13.2	–	–
O=C(CCc1ccc(O)c(O)c1)NCc1ccc(O)c(O)c1 [Example 9, N-(3,4-Dihydroxybenzyl)-3-(3,4-dihydroxyphenyl)-propanamide]	0.07	19.8	–	–
O=C(CCc1ccc(O)c(O)c1)NCc1ccc(O)c(O)c1O [Example 10, N-(2,3,4-Trihydroxybenzyl)-3-(3,4-dihydroxyphenyl)-pronanamide]	0.069	24.6	–	–
O=C(/C=C/c1ccc(O)c(O)c1)NCc1ccc(O)c(O)c1 [Example 11, N-(3,4-Dihydroxybenzyl)-3,4-dihydroxy-E-cinnamamide]	0.043	14.9	–	–
COc1cc(CNC(=O)/C=C/c2ccc(O)c(O)c2)ccc1O [Example 12, N-(4-Hydroxy-3-methoxybenzyl)-3,4-dihydroxy-E-cinnamamide]	0.089	14.3	–	–
COc1cc(CNC(=O)/C=C/c2ccc(O)c(O)c2)cc(OC)c1O [Example 13, N-(3,5-Dimethoxy-4-hydroxybenzyl)-3,4-dihydroxy-E-cinnamamide]	0.1	3.6	–	–
O=C(/C=C/c1ccc(O)c(O)c1)NCc1ccc(O)c(O)c1O [Example 14, N-(2,3,4-Trihydroxybenzyl)-3,4-dihydroxy-E-cinnamamide]	0.054	27.5	–	–
COc1cc(CNC(=O)Cc2ccc(O)c(O)c2)ccc1O [Example 15, N-(4-Hydroxy-3-methoxybenzyl)-3,4-dihydroxyphenylacetamide]	0.105	7.84	–	–
O=C(Cc1ccc(O)c(O)c1)NCc1ccc(O)c(O)c1 [Example 16, N-(3,4-Dihydroxybenzyl)-3,4-dihydroxyphenylacetamide]	0.053	8.84	–	–
COc1cc(/C=C/C(=O)O)ccc1O [Ferulic acid, ferulic acid, reference compound]	0.350	1.79	–	–
COc1cc(/C=C/C(=O)NCCc2ccc(O)cc2)ccc1O [N-(2-[4-hydroxyphenyl]ethyl)-4-hydroxy-3-methoxy-E-cinnamamide, reference compound]	0.441	1.41	no better than α-tocopherol	no better than α-tocopherol
O=C1O[C@H]([C@@H](O)CO)C(O)=C1O [Vitamin C, L-ascorbic acid, reference compound]	0.270	1.17	–	–
Cc1c(C)c2c(c(C)c1O)CCC(C)(CCCC(C)CCCC(C)CCCC(C)C)O2 (stereo not drawn) [α-Tocopherol, α-tocopherol, reference compound]	0.250	5.05	–	–

Source: US6117365A, “Phenolic acid amides of hydroxy-substituted benzylamines” (Haarmann & Reimer GmbH, priority 1997, dated 2000)
